Laboratory results as given in US20200360331A1, “COMPOSITIONS COMPRISING 15-HEPE AND/OR 15-HETrE AND METHODS OF TREATING OR PREVENTING CARDIOMETABOLIC DISEASE, METABOLIC SYNDROME, AND/OR RELATED DISEASES” (Afimmune Limited, priority 2019, published 2020).
“Also recorded” adds a separate entry of the source.

Assays:
Alpha-SMA = assay: UUO study: quantitative RT-PCR of kidney, Alpha-SMA; format: in vivo, C57BL/6 mice; conditions: UUO mice kidney
Procedure: (§1) Quantitative RT-PCR: Total ribonucleic acid (RNA) was extracted from kidney samples using RNAiso (Takara Bio, Japan) according to the manufacturer's instructions. One μg of RNA was reverse-transcribed using a reaction mixture containing 4.4 micromolar (mM) of magnesium chloride (MgCl2) (F. Hoffmann-La Roche, Switzerland), 40 U RNase inhibitor (Toyobo, Japan), 0.5 mM dNTP (Promega, USA), 6.28 μM random hexamer (Promega), 5× first strand buffer (Promega), 10 mM dithiothreitol (Invitrogen, USA) and 200 U MMLV-RT (Invitrogen) in a final volume of 20 μL. The reaction was carried out for 1 hour at 37° C., followed by 5 minutes at 99° C. Real-time PCR was performed using real-time PCR DICE and TB Green™ Premix Ex Taq™ II (Takara Bio). To calculate the relative microRNA (mRNA) expression level, the expression of each gene (e.g., α-SMA, TIMP-1, TGF-β and Collagen Type 1) was normalized to that of reference gene 36B4 (gene symbol: Rplp0). Information regarding the PCR-primer sets and the plate layout are described in Tables 1 and 2.

NAFLD patients = assay: Phase IIa NAFLD study: lipidomics; format: in vivo, human; conditions: 2 g
Source text: Exploratory analysis: The exploratory analysis included analysis of lipid and metabolic parameters including total cholesterol, triglycerides, very low-density lipoprotein cholesterol (VLDL-C), low density lipoprotein cholesterol (LDL-C), high density lipoprotein cholesterol (HDL-C), non-high-density lipoprotein cholesterol (non-HDL-C), remnant-like particle cholesterol (RLP-C), fasting glucose, insulin, free fatty acids and hemoglobin A1C (HbA1C). Additional exploratory analysis included high throughput lipidomics and proteomics. […] The study was planned to include 96 evaluable patients with 32 patients randomized per treatment group. […] Exploratory analysis: The exploratory analysis included analysis of lipid and metabolic parameters including total cholesterol, triglycerides, very low-density lipoprotein cholesterol (VLDL-C), low density lipoprotein cholesterol (LDL-C), high density lipoprotein cholesterol (HDL-C), non-high-density lipoprotein cholesterol (non-HDL-C), remnant-like particle cholesterol (RLP-C), fasting glucose, insulin, free fatty acids and hemoglobin A1C (HbA1C). Additional exploratory analysis included high throughput lipidomics and proteomics.

Collagen Type 1 = assay: BDL study: quantitative RT-PCR of liver, Collagen Type 1; format: in vivo, C57BL/6J mice; conditions: BDL mice liver
Procedure: as §1, with “from liver” for “from kidney”, “4.4 mM” for “4.4 micromolar (mM) of”, “relative mRNA” for “relative microRNA (mRNA)”, “gene (α-SMA,” for “gene (e.g., α-SMA,”, “Tables 8” for “Tables 1”, “and 9.” for “and 2.”

caveolin-1 = assay: Sucrose density gradient analysis in Mv1Lu cells, caveolin-1; format: cell-based, mink; conditions: 100 μM, 0, 1, 4 and 24 hours
Procedure: Sucrose gradient ultracentrifugation and confocal microscopy were used to identify 15-HEPE induced microdomain translocation of TGF-β receptors by sucrose. Sucrose density gradient analysis of TGF-β receptors was conducted in the plasma membranes of Mv1Lu cells (mink lung epithelial cell) treated with 100 μM of 15-HEPE and an equal volume of DMSO (dimethyl sulfoxide) at 37° C. for 0, 1, 4, and 24 hours, and the cell lysates from these treated cells were subjected to sucrose density gradient ultracentrifugation. The sucrose gradient fractions were then analyzed by Western blot analysis using anti-TβR-I (type I TGF-β receptor), anti-TβR-II (type II TGF-β receptor), anti-TβR-III (type III TGF-β receptor, betaglycan), anti-EGFR (epidermal growth factor receptor), and anti-caveolin-1 antibodies. The lipid raft/caveolae, and non-lipid raft microdomain localization of TβR-I, TβR-II, TβR-III, EGFR and caveolin-1 in the plasma membrane of untreated cells or cells treated with 15-HEPE were assessed to determine the effects of 15-HEPE on the membrane microdomain localization of the TGF-β receptors. […]

TGF-β = assay: UUO study: quantitative RT-PCR of kidney, TGF-β; format: in vivo, C57BL/6 mice; conditions: UUO mice kidney
Procedure: as §1

[1] = relative mRNA normalized to 36B4, 50 mg/kg PO QD Day 0-13
[2] = relative mRNA normalized to 36B4, 500 mg/kg PO QD Day 0-13

Q: Which Alpha-SMA gene expression (Alpha-SMA; [1]) does the source give for `CC/C=C\CC(O)/C=C/C=C\C/C=C\C/C=C\CCCC(=O)O` (stereo not drawn) [DS102, 15-hydroxy-eicosa-5Z,8Z,11Z,13E,17Z-pentaenoic acid] here?
A: 3.74 ± 0.81

Q: What about the Alpha-SMA gene expression (Alpha-SMA; [2]) of the same molecule?
A: 5.54 ± 1.54

Q: What about the “levels of multiple glycerophospholipid groups” value (NAFLD patients) of the same molecule?
A: significantly increased

Q: And the “levels of multiple hepatotoxic diglycerides” value (NAFLD patients)?
A: significantly decreased

Q: What about the “Collagen Type 1 mRNA expression level compared with the Vehicle group” value (Collagen Type 1; 500 mg/kg) of the same molecule?
A: tended to decrease; also recorded: trend approaching significance

Q: What about the “Collagen Type 1 mRNA expression level vs Vehicle group” value (Collagen Type 1; DS102 treatment groups) of the same molecule?
A: no significant differences

Q: And the “Collagen Type 1 gene expression” value (Collagen Type 1; [1])?
A: 4.94 ± 2.76

Q: And the “Collagen Type 1 gene expression” value (Collagen Type 1; relative mRNA normalized to 36B4, 250 mg/kg PO QD Day 0-13)?
A: 4.21 ± 1.90

Q: And the “Collagen Type 1 gene expression” value (Collagen Type 1; [2])?
A: 2.51 ± 1.39

Q: And the “localization and abundance of caveolin-1” value (caveolin-1)?
A: did not change the localization and abundance

Q: What about the TGF-β gene expression (TGF-β; [1]) of the same molecule?
A: 4.31 ± 0.69

Q: And the TGF-β gene expression (TGF-β; [2])?
A: 5.37 ± 0.76
